Values quoted from earlier work, collected in US20100292199A1 (priority 2007, published 2010).

In the case of `C[C@]12CC[C@H]3[C@@H](CCC4=CC(=O)CC[C@@]43C)[C@@H]1CC[C@@H]2O` [Testosterone], the “solubility in ethyl alcohol” value (ethyl alcohol) is listed as “soluble in ethyl alcohol” and the solubility in water (water) is listed as “insoluble in water”.
